Laboratory results as given in patent publication US8192962B2, “Processes for detecting toxic substances” (Daikin Industries, Ltd., priority 2001, dated 2012).

Tested on: Stress protein genes
Test: DNA chip mRNA expression in yeast, stress protein genes (Table 6)
Assay type: cell-based, Saccharomyces cerevisiae S288C
In short: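 Ratios compare mRNA levels in stressed and control S. cerevisiae. Each toxicant was applied for two hours to log-phase cultures at 25° C. at a sub-lethal, growth-inhibiting level; fluorescent cDNA (Cy3- or Cy5-dUTP) was hybridized to a genome-wide yeast chip for over 12 h at 65° C.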

Na2As [(1)]
The level of expressed mRNA in the presence of chemical substance/The level of expressed mRNA in the absence of chemical substance (yeast gene YAL005C): 0.6 | The level of expressed mRNA in the presence of chemical substance/The level of expressed mRNA in the absence of chemical substance (yeast gene YAL015C): 1.2 | The level of expressed mRNA in the presence of chemical substance/The level of expressed mRNA in the absence of chemical substance (yeast gene YBL075C): 1.3 | The level of expressed mRNA in the presence of chemical substance/The level of expressed mRNA in the absence of chemical substance (yeast gene YBL093C): 1.0 | The level of expressed mRNA in the presence of chemical substance/The level of expressed mRNA in the absence of chemical substance (yeast gene YBR044C): 0.8 | The level of expressed mRNA in the presence of chemical substance/The level of expressed mRNA in the absence of chemical substance (yeast gene YBR054W): 1.9 | The level of expressed mRNA in the presence of chemical substance/The level of expressed mRNA in the absence of chemical substance (yeast gene YBR067C): 1.6 | The level of expressed mRNA in the presence of chemical substance/The level of expressed mRNA in the absence of chemical substance (yeast gene YBR072W): 18.5 | The level of expressed mRNA in the presence of chemical substance/The level of expressed mRNA in the absence of chemical substance (yeast gene YBR126C): 0.8 | The level of expressed mRNA in the presence of chemical substance/The level of expressed mRNA in the absence of chemical substance (yeast gene YBR169C): 1.0 | The level of expressed mRNA in the presence of chemical substance/The level of expressed mRNA in the absence of chemical substance (yeast gene YCL035C): 2.0 | The level of expressed mRNA in the presence of chemical substance/The level of expressed mRNA in the absence of chemical substance (yeast gene YCR021C): 5.2 | The level of expressed mRNA in the presence of chemical substance/The level of expressed mRNA in the absence of chemical substance (yeast gene YCR083W): 1.1 | The level of expressed mRNA in the presence of chemical substance/The level of expressed mRNA in the absence of chemical substance (yeast gene YDL022W): 0.9 | The level of expressed mRNA in the presence of chemical substance/The level of expressed mRNA in the absence of chemical substance (yeast gene YDL025C): 1.7 | The level of expressed mRNA in the presence of chemical substance/The level of expressed mRNA in the absence of chemical substance (yeast gene YDR033W): 1.1 | The level of expressed mRNA in the presence of chemical substance/The level of expressed mRNA in the absence of chemical substance (yeast gene YDR077W): 1.2 | The level of expressed mRNA in the presence of chemical substance/The level of expressed mRNA in the absence of chemical substance (yeast gene YDR098C): 0.8 | The level of expressed mRNA in the presence of chemical substance/The level of expressed mRNA in the absence of chemical substance (yeast gene YDR155C): 1.1 | The level of expressed mRNA in the presence of chemical substance/The level of expressed mRNA in the absence of chemical substance (yeast gene YDR258C): 1.6 | The level of expressed mRNA in the presence of chemical substance/The level of expressed mRNA in the absence of chemical substance (yeast gene YDR293C): 0.9 | The level of expressed mRNA in the presence of chemical substance/The level of expressed mRNA in the absence of chemical substance (yeast gene YDR436W): 0.9 | The level of expressed mRNA in the presence of chemical substance/The level of expressed mRNA in the absence of chemical substance (yeast gene YDR513W): 2.2 | The level of expressed mRNA in the presence of chemical substance/The level of expressed mRNA in the absence of chemical substance (yeast gene YDR519W): 1.3 | The level of expressed mRNA in the presence of chemical substance/The level of expressed mRNA in the absence of chemical substance (yeast gene YEL030W): 0.7 | The level of expressed mRNA in the presence of chemical substance/The level of expressed mRNA in the absence of chemical substance (yeast gene YEL039C): 1.1 | The level of expressed mRNA in the presence of chemical substance/The level of expressed mRNA in the absence of chemical substance (yeast gene YER042W): 3.0 | The level of expressed mRNA in the presence of chemical substance/The level of expressed mRNA in the absence of chemical substance (yeast gene YER057C): 1.2 | The level of expressed mRNA in the presence of chemical substance/The level of expressed mRNA in the absence of chemical substance (yeast gene YER103W): 0.7 | The level of expressed mRNA in the presence of chemical substance/The level of expressed mRNA in the absence of chemical substance (yeast gene YER125W): 0.6 | The level of expressed mRNA in the presence of chemical substance/The level of expressed mRNA in the absence of chemical substance (yeast gene YFL014W): 3.4 | The level of expressed mRNA in the presence of chemical substance/The level of expressed mRNA in the absence of chemical substance (yeast gene YFL016C): 0.8 | The level of expressed mRNA in the presence of chemical substance/The level of expressed mRNA in the absence of chemical substance (yeast gene YFL020C): 1.0 | The level of expressed mRNA in the presence of chemical substance/The level of expressed mRNA in the absence of chemical substance (yeast gene YFR052W): 1.1 | The level of expressed mRNA in the presence of chemical substance/The level of expressed mRNA in the absence of chemical substance (yeast gene YGL073W): 1.0 | The level of expressed mRNA in the presence of chemical substance/The level of expressed mRNA in the absence of chemical substance (yeast gene YGL115W): 0.9 | The level of expressed mRNA in the presence of chemical substance/The level of expressed mRNA in the absence of chemical substance (yeast gene YGL181W): 0.9 | The level of expressed mRNA in the presence of chemical substance/The level of expressed mRNA in the absence of chemical substance (yeast gene YGR088W): 1.3 | The level of expressed mRNA in the presence of chemical substance/The level of expressed mRNA in the absence of chemical substance (yeast gene YHL028W): 0.7 | The level of expressed mRNA in the presence of chemical substance/The level of expressed mRNA in the absence of chemical substance (yeast gene YHL046C): 1.1 | The level of expressed mRNA in the presence of chemical substance/The level of expressed mRNA in the absence of chemical substance (yeast gene YHR030C): 2.1 | The level of expressed mRNA in the presence of chemical substance/The level of expressed mRNA in the absence of chemical substance (yeast gene YHR057C): 1.1 | The level of expressed mRNA in the presence of chemical substance/The level of expressed mRNA in the absence of chemical substance (yeast gene YHR104W): 1.0 | The level of expressed mRNA in the presence of chemical substance/The level of expressed mRNA in the absence of chemical substance (yeast gene YIL011W): 0.7 | The level of expressed mRNA in the presence of chemical substance/The level of expressed mRNA in the absence of chemical substance (yeast gene YIL033C): 0.8 | The level of expressed mRNA in the presence of chemical substance/The level of expressed mRNA in the absence of chemical substance (yeast gene YIR037W): 1.4 | The level of expressed mRNA in the presence of chemical substance/The level of expressed mRNA in the absence of chemical substance (yeast gene YIR038C): 1.3 | The level of expressed mRNA in the presence of chemical substance/The level of expressed mRNA in the absence of chemical substance (yeast gene YJL128C): 0.8 | The level of expressed mRNA in the presence of chemical substance/The level of expressed mRNA in the absence of chemical substance (yeast gene YJL158C): 0.9 | The level of expressed mRNA in the presence of chemical substance/The level of expressed mRNA in the absence of chemical substance (yeast gene YJL159W): 1.0 | The level of expressed mRNA in the presence of chemical substance/The level of expressed mRNA in the absence of chemical substance (yeast gene YJL165C): 1.0 | The level of expressed mRNA in the presence of chemical substance/The level of expressed mRNA in the absence of chemical substance (yeast gene YJR045C): 0.5 | The level of expressed mRNA in the presence of chemical substance/The level of expressed mRNA in the absence of chemical substance (yeast gene YJR090C): 0.8 | The level of expressed mRNA in the presence of chemical substance/The level of expressed mRNA in the absence of chemical substance (yeast gene YKL161C): 4.2 | The level of expressed mRNA in the presence of chemical substance/The level of expressed mRNA in the absence of chemical substance (yeast gene YKL163W): 1.1 | The level of expressed mRNA in the presence of chemical substance/The level of expressed mRNA in the absence of chemical substance (yeast gene YKL164C): 0.6 | The level of expressed mRNA in the presence of chemical substance/The level of expressed mRNA in the absence of chemical substance (yeast gene YKL210W): 0.5 | The level of expressed mRNA in the presence of chemical substance/The level of expressed mRNA in the absence of chemical substance (yeast gene YKR053C): 0.9 | The level of expressed mRNA in the presence of chemical substance/The level of expressed mRNA in the absence of chemical substance (yeast gene YLL024C): 0.5 | The level of expressed mRNA in the presence of chemical substance/The level of expressed mRNA in the absence of chemical substance (yeast gene YLL026W): 1.8 | The level of expressed mRNA in the presence of chemical substance/The level of expressed mRNA in the absence of chemical substance (yeast gene YLL039C): 1.1 | The level of expressed mRNA in the presence of chemical substance/The level of expressed mRNA in the absence of chemical substance (yeast gene YLL060C): 12.5 | The level of expressed mRNA in the presence of chemical substance/The level of expressed mRNA in the absence of chemical substance (yeast gene YLR006C): 0.7 | The level of expressed mRNA in the presence of chemical substance/The level of expressed mRNA in the absence of chemical substance (yeast gene YLR109W): 0.8 | The level of expressed mRNA in the presence of chemical substance/The level of expressed mRNA in the absence of chemical substance (yeast gene YLR259C): 0.7 | The level of expressed mRNA in the presence of chemical substance/The level of expressed mRNA in the absence of chemical substance (yeast gene YML007W): 0.9 | The level of expressed mRNA in the presence of chemical substance/The level of expressed mRNA in the absence of chemical substance (yeast gene YML070W): 0.9 | The level of expressed mRNA in the presence of chemical substance/The level of expressed mRNA in the absence of chemical substance (yeast gene YMR021C): 1.0 | The level of expressed mRNA in the presence of chemical substance/The level of expressed mRNA in the absence of chemical substance (yeast gene YMR173W): 1.5 | The level of expressed mRNA in the presence of chemical substance/The level of expressed mRNA in the absence of chemical substance (yeast gene YMR186W): 0.6 | The level of expressed mRNA in the presence of chemical substance/The level of expressed mRNA in the absence of chemical substance (yeast gene YNL064C): 0.9 | The level of expressed mRNA in the presence of chemical substance/The level of expressed mRNA in the absence of chemical substance (yeast gene YNL160W): 2.1 | The level of expressed mRNA in the presence of chemical substance/The level of expressed mRNA in the absence of chemical substance (yeast gene YNL241C): 1.3 | The level of expressed mRNA in the presence of chemical substance/The level of expressed mRNA in the absence of chemical substance (yeast gene YNR076W): 1.3 | The level of expressed mRNA in the presence of chemical substance/The level of expressed mRNA in the absence of chemical substance (yeast gene YOL064C): 1.4 | The level of expressed mRNA in the presence of chemical substance/The level of expressed mRNA in the absence of chemical substance (yeast gene YOL161C): 1.2 | The level of expressed mRNA in the presence of chemical substance/The level of expressed mRNA in the absence of chemical substance (yeast gene YOR008C): 0.7 | The level of expressed mRNA in the presence of chemical substance/The level of expressed mRNA in the absence of chemical substance (yeast gene YOR009W): 0.9 | The level of expressed mRNA in the presence of chemical substance/The level of expressed mRNA in the absence of chemical substance (yeast gene YOR010C): 0.7 | The level of expressed mRNA in the presence of chemical substance/The level of expressed mRNA in the absence of chemical substance (yeast gene YOR027W): 0.7 | The level of expressed mRNA in the presence of chemical substance/The level of expressed mRNA in the absence of chemical substance (yeast gene YOR208W): 1.3 | The level of expressed mRNA in the presence of chemical substance/The level of expressed mRNA in the absence of chemical substance (yeast gene YPL059W): 1.2 | The level of expressed mRNA in the presence of chemical substance/The level of expressed mRNA in the absence of chemical substance (yeast gene YPL106C): 0.6 | The level of expressed mRNA in the presence of chemical substance/The level of expressed mRNA in the absence of chemical substance (yeast gene YPL140C): 0.9 | The level of expressed mRNA in the presence of chemical substance/The level of expressed mRNA in the absence of chemical substance (yeast gene YPL194W): 0.9 | The level of expressed mRNA in the presence of chemical substance/The level of expressed mRNA in the absence of chemical substance (yeast gene YPL223C): 4.8 | The level of expressed mRNA in the presence of chemical substance/The level of expressed mRNA in the absence of chemical substance (yeast gene YPL240C): 0.7 | The level of expressed mRNA in the presence of chemical substance/The level of expressed mRNA in the absence of chemical substance (yeast gene YPR005C): 1.3 | The level of expressed mRNA in the presence of chemical substance/The level of expressed mRNA in the absence of chemical substance (yeast gene YPR026W): 0.9
